One may read the IC50 as the concentration that gives 50% inhibition.

Series [1] relates to HepG2 cells. Description: HepG2 72-h cytotoxicity assay (glucose medium, ATP content). It counts as cell-based, human. How it is done:
(§1) Cytotoxicity of TAK-994 was evaluated in glucose or galactose medium after 24 h and in glucose medium after 72 h in HepG2 cells, with cryopreserved HepG2 cells thawed and seeded onto assay plates at 5,000 cells/well in glucose or galactose medium for the 24-h assay and at 2,500 cells/well in glucose medium for the 72-h assay. After ∼24 h of incubation at 37 °C in 5% CO2, the cells were incubated with test solutions under the same conditions for 24 h for the plate with 5,000 cells/well or 72 h for the plate with 2,500 cells/well. Cytotoxicity of TAK-994 was also assessed using HepG2 cells with CYP3A4 overexpression using a lentivirus vector. HepG2/CYP3A4 cells were incubated in media containing TAK-994 (0.09 to 200 μM), positive control aflatoxin B1 (0.04 to 80 μM), or 1.0% DMSO (negative control). In both cytotoxicity assays, adenosine triphosphate (ATP) content was assessed after incubation using a commercial luminescence assay (CellTiter-Glo; Promega Co., Ltd, WI, United States).
HepG2 cells (American Type Culture Collection [ATCC, VA, USA]) were acclimated to Dulbecco's Modified Eagle Medium (DMEM; Thermo Fisher Scientific, MA, USA) with either high glucose or high galactose and containing 10% FBS for 1 week then cryopreserved. The cryopreserved HepG2 cells were thawed, cultured for 24 hours, then seeded at 5000 cells/well in glucose or galactose medium for the 24-hour assay and at 2500 cells/well in glucose medium for the 72-hour assay onto the assay plates. After approximately 24 hours of incubation at 37°C in 5% CO2, the cells were incubated with test solutions under the same conditions for 24 hours for the plate with 5000 cells/well or 72 hours for the plate with 2500 cells/well. After the incubation, CellTiter-Glo® (Promega Co., Ltd., WI, USA) was added to the assay plates, cells were incubated for 30 minutes, and luminescence was recorded to measure the ATP content using an EnVision plate reader (PerkinElmer Co., Ltd., MA, USA). The test compound TAK-994 was evaluated at concentrations of 0.046, 0.14, 0.41, 1.2, 3.7, 11, 33, and 100 μM. Positive controls rotenone and staurosporine were purchased from FUJIFILM Wako Pure Chemical Corporation (Osaka, Japan) and evaluated at concentrations of 0.046, 0.14, 0.41, 1.2, 3.7, 11, 33, and 100 μM in DMSO (rotenone) or 0.0046, 0.014, 0.041, 0.12, 0.37, 1.1 , 3.3, and 10 μM in DMSO (staurosporine). Two experiments were conducted at each concentration.
Inhibition rate (%) = (1-mean of sample values / mean of Max values) × 100, where Max values = vehicle control.

Series [2] relates to HepG2 cells. Description: HepG2 Glu/Gal 24-h cytotoxicity (mitochondrial toxicity). It counts as cell-based, human. The conditions noted are these: glucose or galactose medium. The procedure:
as §1
HepG2 cells (American Type Culture Collection [ATCC, VA, USA]) were acclimated to Dulbecco's Modified Eagle Medium (DMEM; Thermo Fisher Scientific, MA, USA) with either high glucose or high galactose and containing 10% FBS for 1 week then cryopreserved. […] After the incubation, CellTiter-Glo® (Promega Co., Ltd., WI, USA) was added to the assay plates, cells were incubated for 30 minutes, and luminescence was recorded to measure the ATP content using an EnVision plate reader (PerkinElmer Co., Ltd., MA, USA). The test compound TAK-994 was evaluated at concentrations of 0.046, 0.14, 0.41, 1.2, 3.7, 11, 33, and 100 μM. Positive controls rotenone and staurosporine were purchased from FUJIFILM Wako Pure Chemical Corporation (Osaka, Japan) and evaluated at concentrations of 0.046, 0.14, 0.41, 1.2, 3.7, 11, 33, and 100 μM in DMSO (rotenone) or 0.0046, 0.014, 0.041, 0.12, 0.37, 1.1 , 3.3, and 10 μM in DMSO (staurosporine). […]

In a further series the test system is human liver microtissues. Description: Glutathione depletion (BSO) assay in liver microtissues. The series is classed as cell-based. The settings on record: for IC50: cellular ATP, 14 days. The procedure:
Toxicology of TAK-994 was assessed using lnSphero’s 3D lnSight Human Liver models, based on N-acetyl-L-cysteine causality assay, glutathione depletion assay, and lipopolysaccharide (LPS)-sensitization assay. Hepatotoxicity was assessed in 7- and 14-day mono and co-culture models, in which cells were exposed to TAK-994 (0.1, 0.3, 1, 3.16, 10, 31.6, or 100 μM) […].
Co-culture model cells were pretreated with BSO (150 μM in DMSO) and then exposed to TAK-994 (0.1, 0.3, 1, 3.16, 10, 31.6, or 100 μM in 0.5% DMSO) in the presence and absence of BSO for 14 days (during the treatment period, TAK-994 with or without BSO was administered on Days 0, 5, and 9). Six replicates were tested for each condition. The vehicle control was 0.5% DMSO and the positive control was acetaminophen (0.6, 1.25, 2.5, or 5 mM in Medium TOX). Cellular ATP content was measured in the cell lysate on Day 14 of treatment. LDH release was measured on Days 5, 9, and 14 in the cell supernatant. For cells administered BSO alone, cellular ATP content was also measured on Day 3 and LDH release was also determined between Days 0 to 3. LDH measurements were normalized to lysed controls. Cellular GSH content was measured by GSH-Glo™ Glutathione Assay (Promega) on Days 0, 3, and 14 in the positive control group.
Intracellular ATP content in model lysates was measured with the CellTiter-Glo® 2.0 Cell Viability Assay (Catalogue No. G9243, Promega). The Bioluminescent LDH Release Toxicity Assay Kit (Catalogue No. J2380, Promega) was used to assess extracellular LDH release and normalized to lysed controls. ATP, LDH, GSH, and triglycerides were measured according to internal technical operating procedures.

Another series concerns participants. The experiment in a line: Phase I first-in-human study TAK-994-1001, safety. The series is classed as in vivo. From the text:
TAK-994 was considered to be well tolerated in phase I studies. […] Of 121 participants, 1 subject discontinued due to elevated alanine aminotransferase (ALT) with no other liver enzyme elevations. This event was considered mild in intensity and the participant recovered within 2 wk. No other clinically significant liver enzyme elevations were reported in phase I studies.

For a further series, the system named is patients with narcolepsy. Description: Phase II studies TAK-994-1501 and TAK-994-1504.

Read-outs that look alike come from different tables or passages of the source.

For `CC(C)(O)C(=O)N1CC[C@H](NS(C)(=O)=O)[C@@H]1Cc1cccc(-c2cc(F)cc(F)c2)c1F.CC(C)(O)C(=O)N1CC[C@H](NS(C)(=O)=O)[C@@H]1Cc1cccc(-c2cc(F)cc(F)c2)c1F.O.O.O` [TAK-994], the IC50 was more than 100 µM in the series on HepG2 cells [1]; more than 100 µM in the series on HepG2 cells [2]; more than 100 µM with human liver microtissues (glutathione depleted, read-out: IC50, liver microtissues + BSO (Fig. 4A)); more than 100 µM with human liver microtissues (read-out: IC50, liver microtissues without BSO (Fig. 4A)). Further, in the series on HepG2 cells [1], the “cytotoxicity margin (Cmax/IC50)” value is recorded as more than 100 ×. Moreover, the “top test concentration (100 µM) relative to Cmax in patients” value in the series with HepG2 cells [1] (human) is approximately 100 fold. Further, the “sensitization of liver microtissues by buthionine sulfoximine depletion” value in the series with human liver microtissues was “no such sensitivity was observed”. In the series on participants (TAK-994-1001), the “deaths or SAEs” value is reported as “no deaths or SAEs were reported”. In addition, the “subjects discontinued due to elevated ALT” value with participants (of 121 participants) is reported as 1. Besides, the “subjects who met discontinuation criteria due to increases in liver transaminases” value with patients with narcolepsy (90- and 180-mg BID treatment groups) was 8. The “cases that satisfied Hy's Law criteria, diagnosed as DILI” value with patients with narcolepsy (90 and 180 mg dose groups) stood at 3.

The values are drawn from PMC11939078, “TAK-994 mechanistic investigation into drug-induced liver injury” (Toxicological Sciences, 2025).
